Measured values from patent publication US20100267561A1, “HERBICIDAL PYRIDAZINONE DERIVATIVES” (priority 2007, published 2010).

Assays:
Format in all cases: in vivo
[1] = system: barnyardgrass (Echinochloa crus-galli); test: Test A pre-/postemergence plant response
In short: (§1)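 Seeds sown in loam–sand blend; test chemicals in non-phytotoxic solvent with surfactant applied preemergence as directed soil spray and, concurrently, postemergence to plants 2–10 cm tall at one- to two-leaf stage. Greenhouse ~10 days, then visual injury rating vs untreated controls on 0–100 scale (0 = no effect, 100 = complete control).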

[2] = system: velvetleaf (Abutilon theophrasti); test: Test A pre-/postemergence plant response
In short: as §1

[3] = system: giant foxtail (Setaria faberi); test: Test A pre-/postemergence plant response
In short: as §1

[4] = system: wheat (Triticum aestivum); test: Test A pre-/postemergence plant response
In short: as §1

[5] = system: morningglory (Ipomoea coccinea); test: Test A pre-/postemergence plant response
In short: as §1

[6] = system: large crabgrass (Digitaria sanguinalis); test: Test A pre-/postemergence plant response
In short: as §1

corn (Zea mays) = test: Test A pre-/postemergence plant response
In short: as §1

[7] = system: pigweed (Amaranthus retroflexus); test: Test A pre-/postemergence plant response
In short: as §1

[8] = system: barnyardgrass (Echinochloa crus-galli); test: Test B flooded paddy test plant response
In short: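 Paddy-water application to 2-leaf plants in pots held under 3 cm of flooding; response is a 0–100 visual control rating against controls after 13 to 15 days, and a dash marks a missing result.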

[9] = system: eastern black (E.B.) nightshade (Solanum ptycanthum); test: Test B pre-/postemergence plant response; settings: Preemergence; for Nightshade, E. B. plant response rating: 8 g ai/ha
In short: (§2)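 Seeds were sown and sprayed preemergence, while plants at 2 to 18 cm (1- to 4-leaf stage) got postemergence sprays. Compounds were formulated in a non-phytotoxic solvent mixture with surfactant. After 13 to 15 days in a greenhouse, injury was rated visually against untreated controls, 0 (no effect) to 100 (complete control).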

[10] = system: green foxtail (Setaria viridis); test: Test B pre-/postemergence plant response; settings: for Foxtail, Green plant response rating: 8 g ai/ha
In short: as §2

[11] = Postemergence, 31 g ai/ha, 0 to 100 scale (0 no effect, 100 complete control)
[12] = Postemergence, 125 g ai/ha, 0 to 100 scale, 0 no effect, 100 complete control
[13] = Preemergence, 31 g ai/ha, 0 to 100 scale, 0 is no effect, 100 is complete control
[14] = Preemergence, 125 g ai/ha, 0 to 100 scale (0 no effect, 100 complete control)
[15] = Flood (flooded paddy test), 62 g ai/ha, scale 0 to 100, 0 no effect, 100 complete control
[16] = Flood (flooded paddy test), 125 g ai/ha, scale 0 to 100, 0 no effect, 100 complete control
[17] = Flood (flooded paddy test), 250 g ai/ha, scale 0 to 100, 0 no effect, 100 complete control
[18] = Flood, 31 g ai/ha, scale 0 to 100
[19] = 16 g ai/ha, scale 0 to 100 (0 no effect, 100 complete control)
[20] = Postemergence, 16 g ai/ha, scale 0 to 100
[21] = Postemergence, 31 g ai/ha, scale 0 to 100, 0 no effect, 100 complete control
[22] = Postemergence, 62 g ai/ha, scale 0 to 100, 0 no effect, 100 complete control
[23] = Preemergence, 16 g ai/ha, scale 0 to 100 (0 no effect, 100 complete control)
[24] = Preemergence, 31 g ai/ha, 0 to 100 scale, 0 no effect, 100 complete control
[25] = Preemergence, 62 g ai/ha, scale 0 to 100

CCc1cc(-c2ccc(Cl)cc2)nn1-c1c(OS(C)(=O)=O)cnn(C)c1=O [Compound 39]
30: Plant response rating, Corn (corn (Zea mays); [13]) | Foxtail, Green plant response rating ([10]; postemergence, 0-100 scale)
60: Plant response rating, Crabgrass, Large [6, 11] | Plant response rating, Crabgrass, Large [6, 13]
100: Plant response rating, Barnyardgrass [1, 11] | Plant response rating, Barnyardgrass [1, 12] | Plant response rating, Barnyardgrass [1, 13] | Plant response rating, Barnyardgrass [1, 14] | Plant response rating, Foxtail, Giant [3, 12] | Plant response rating, Foxtail, Giant [3, 14] | Plant response rating, Crabgrass, Large [6, 12] | Plant response rating, Crabgrass, Large [6, 14] | Plant response rating, Corn (corn (Zea mays); [12]) | Plant response rating, Foxtail, Green [10, 22] | Plant response rating, Foxtail, Green [10, 23] | Plant response rating, Foxtail, Green [10, 24] | Plant response rating, Foxtail, Green [10, 25]
90: Plant response rating, Foxtail, Giant [3, 11] | Plant response rating, Foxtail, Giant [3, 13] | Plant response rating, Corn (corn (Zea mays); [14])
80: Plant response rating, Wheat [4, 12] | Plant response rating, Wheat [4, 14] | Plant response rating, Barnyardgrass [8, 15] | Plant response rating, Foxtail, Green [10, 20] | Foxtail, Green plant response rating ([10]; Preemergence, scale 0 to 100)
0: Plant response rating, Velvetleaf [2, 11] | Plant response rating, Velvetleaf [2, 12] | Plant response rating, Velvetleaf [2, 13] | Plant response rating, Velvetleaf [2, 14] | Plant response rating, Morningglory [5, 11] | Plant response rating, Morningglory [5, 12] | Plant response rating, Morningglory [5, 13] | Plant response rating, Morningglory [5, 14] | Plant response rating, Pigweed [7, 11] | Plant response rating, Pigweed [7, 12] | Plant response rating, Pigweed [7, 13] | Plant response rating, Pigweed [7, 14] | Plant response rating, Barnyardgrass [8, 18] | Plant response rating, Nightshade, E. B. [9, 19] | Plant response rating, Nightshade, E. B. ([9]; 31 g ai/ha, 0 to 100 scale, 0 no effect, 100 complete control) | Plant response rating, Nightshade, E. B. ([9]; 62 g ai/ha, scale 0 to 100) | Nightshade, E. B. plant response rating ([9]; scale 0 to 100)
40: Plant response rating, Wheat [4, 11] | Plant response rating, Wheat [4, 13]
65: Plant response rating, Barnyardgrass [8, 16]
85: Plant response rating, Barnyardgrass [8, 17] | Plant response rating, Foxtail, Green [10, 21]
70: Plant response rating, Corn (corn (Zea mays); [11])

CCc1cc(-c2ccc(Cl)cc2)nn1-c1c(OC(=O)C(C)(C)C)cnn(C)c1=O [Compound 40]
60: Plant response rating, Barnyardgrass [8, 18]
90: Plant response rating, Wheat [4, 12] | Plant response rating, Wheat [4, 14] | Plant response rating, Corn (corn (Zea mays); [11]) | Plant response rating, Corn (corn (Zea mays); [14]) | Foxtail, Green plant response rating ([10]; Preemergence, scale 0 to 100)
70: Plant response rating, Wheat [4, 11] | Plant response rating, Crabgrass, Large [6, 11] | Plant response rating, Crabgrass, Large [6, 13]
30: Plant response rating, Corn (corn (Zea mays); [13])
50: Plant response rating, Wheat [4, 13]
100: Plant response rating, Barnyardgrass [1, 11] | Plant response rating, Barnyardgrass [1, 12] | Plant response rating, Barnyardgrass [1, 13] | Plant response rating, Barnyardgrass [1, 14] | Plant response rating, Foxtail, Giant [3, 11] | Plant response rating, Foxtail, Giant [3, 12] | Plant response rating, Foxtail, Giant [3, 13] | Plant response rating, Foxtail, Giant [3, 14] | Plant response rating, Crabgrass, Large [6, 12] | Plant response rating, Crabgrass, Large [6, 14] | Plant response rating, Corn (corn (Zea mays); [12]) | Plant response rating, Barnyardgrass [8, 16] | Plant response rating, Barnyardgrass [8, 17] | Plant response rating, Foxtail, Green [10, 21] | Plant response rating, Foxtail, Green [10, 22] | Plant response rating, Foxtail, Green [10, 23] | Plant response rating, Foxtail, Green [10, 24] | Plant response rating, Foxtail, Green [10, 25]
0: Plant response rating, Velvetleaf [2, 11] | Plant response rating, Velvetleaf [2, 12] | Plant response rating, Velvetleaf [2, 13] | Plant response rating, Velvetleaf [2, 14] | Plant response rating, Morningglory [5, 11] | Plant response rating, Morningglory [5, 12] | Plant response rating, Morningglory [5, 13] | Plant response rating, Morningglory [5, 14] | Plant response rating, Pigweed [7, 11] | Plant response rating, Pigweed [7, 12] | Plant response rating, Pigweed [7, 13] | Plant response rating, Nightshade, E. B. [9, 19] | Plant response rating, Nightshade, E. B. ([9]; 31 g ai/ha, scale 0 to 100 (0 no effect, 100 complete control)) | Plant response rating, Nightshade, E. B. ([9]; 62 g ai/ha, scale 0 to 100) | Nightshade, E. B. plant response rating ([9]; scale 0 to 100)
95: Plant response rating, Foxtail, Green [10, 20]
85: Plant response rating, Barnyardgrass [8, 15] | Foxtail, Green plant response rating ([10]; postemergence, 0-100 scale)
